In the NIST ThermoML archive (doi:10.1021/je300045c):
“And” between values parts separate entries of the source, which are not always exact repeats. Equal entries are not always repeated. Numbers after ± are expanded uncertainties.

What was measured:
[1] = xn = mol fraction of the nth substance listed; details: 358.15 K, 101 kPa, Liquid; for electrical conductivity: Alternating current cell with electrodes; for viscosity: Falling or rolling sphere viscometry; for mass density: Vibrating tube method
[2] = molar heat capacity at constant pressure; wn = mass fraction of the nth substance listed; details: 358.15 K, 101 kPa, Liquid, Small sample (50 mg) DSC

CCCCn1cc[n+](C)c1.CS(=O)(=O)[O-] [1-butyl-3-methylimidazolium methanesulfonate] + O
Details	electrical conductivity [S/m]	mass density [kg/m3]	molar heat capacity at constant pressure	viscosity [mPa·s]
[1], x2 = 0	0.805 ± 0.14	1134 ± 2	–	–
[1], x2 = 0.012	0.821 ± 0.14	1134 ± 2	–	–
[1], x2 = 0.028	0.84 ± 0.14	1134 ± 2	–	–
[1], x2 = 0.049	0.871 ± 0.14	1134 ± 2	–	–
[1], x2 = 0.074	0.907 ± 0.14	1133 ± 2	–	–
[1], x2 = 0.106	0.955 ± 0.14	1133 ± 2	–	–
[1], x2 = 0.131	1 ± 0.14	1132 ± 2	–	–
[1], x2 = 0.14	–	1132 ± 2	–	–
[1], x2 = 0.147	1.03 ± 0.14	1132 ± 2	–	–
[1], x2 = 0.156	1.06 ± 0.14	–	–	–
[1], x2 = 0.159	–	1131 ± 2	–	–
[1], x2 = 0.185	1.12 ± 0.14	–	–	–
[1], x2 = 0.187	–	1130 ± 2	–	–
[1], x2 = 0.203	1.14 ± 0.14	1130 ± 2	–	–
[1], x2 = 0.217	1.2 ± 0.14	–	–	–
[1], x2 = 0.224	–	1129 ± 2	–	–
[1], x2 = 0.252	1.29 ± 0.14	–	–	–
[1], x2 = 0.27	1.3 ± 0.14	1129 ± 2	–	–
[1], x2 = 0.271	–	1128 ± 2	–	–
[1], x2 = 0.306	1.44 ± 0.14	–	–	–
[1], x2 = 0.329	–	1126 ± 4	–	–
[1], x2 = 0.358	1.61 ± 0.14	–	–	–
[1], x2 = 0.363	1.59 ± 0.14	1126 ± 4	–	–
[1], x2 = 0.4	–	1125 ± 4	–	–
[1], x2 = 0.423	1.87 ± 0.14	–	–	–
[1], x2 = 0.457	2 ± 0.14	1124 ± 4	–	–
[1], x2 = 0.478	–	1122 ± 4	–	–
[1], x2 = 0.495	2.22 ± 0.14	–	–	–
[1], x2 = 0.535	2.46 ± 0.14	–	–	–
[1], x2 = 0.555	–	1121 ± 4	–	–
[1], x2 = 0.556	2.58 ± 0.14	1120 ± 4	–	–
[1], x2 = 0.559	–	1120.7 ± 2	–	7.514 ± 0.76
[1], x2 = 0.61	3.02 ± 0.14	–	–	–
[1], x2 = 0.628	–	1118 ± 4	–	–
[1], x2 = 0.643	3.14 ± 0.14	1116 ± 6	–	–
[1], x2 = 0.654	–	1114.4 ± 2	–	5.344 ± 0.54
[1], x2 = 0.677	3.71 ± 0.14	–	–	–
[1], x2 = 0.692	–	1113 ± 6	–	–
[1], x2 = 0.702	–	1110.3 ± 2	–	4.549 ± 0.46
[1], x2 = 0.744	4.6 ± 0.16	1106 ± 6	–	–
[1], x2 = 0.749	–	1104.1 ± 2	–	3.616 ± 0.36
[1], x2 = 0.75	4.81 ± 0.16	–	–	–
[1], x2 = 0.771	–	1105 ± 6	–	–
[1], x2 = 0.801	–	1094.9 ± 2	–	2.795 ± 0.28
[1], x2 = 0.836	6.82 ± 0.2	1087 ± 10	–	–
[1], x2 = 0.842	7.27 ± 0.2	–	–	–
[1], x2 = 0.848	–	1085 ± 10	–	–
[1], x2 = 0.852	–	1081.2 ± 2	–	2.048 ± 0.21
[1], x2 = 0.878	9 ± 0.17	–	–	–
[1], x2 = 0.886	–	1072 ± 10	–	–
[1], x2 = 0.9	–	1062.3 ± 2	–	1.486 ± 0.15
[1], x2 = 0.925	–	1048.2 ± 2	–	1.149 ± 0.12
[1], x2 = 0.95	–	1029.7 ± 2	–	0.834 ± 0.087
[1], x2 = 0.975	–	1003.9 ± 2	–	0.547 ± 0.058
[2], w2 = 0.002	–	–	1.768 ± 0.22 J/K/mol	–
[2], w2 = 0.014	–	–	1.793 ± 0.22 J/K/mol	–
[2], w2 = 0.032	–	–	1.996 ± 0.22 J/K/mol and 2.027 ± 0.22 J/K/mol	–
[2], w2 = 0.087	–	–	2.267 ± 0.22 J/K/mol	–
[2], w2 = 0.097	–	–	2.252 ± 0.22 J/K/mol	–
[2], w2 = 0.15	–	–	2.244 ± 0.22 J/K/mol	–
[2], w2 = 0.233	–	–	2.448 ± 0.22 J/K/mol	–
[2], w2 = 0.429	–	–	2.926 ± 0.22 J/K/mol	–
